Results on 22 molecules are retold here after ChEMBL document CHEMBL4229354, “Synthesis, antiamoebic activity and docking studies of metronidazole-triazole-styryl hybrids” (Eur J Med Chem, 2018).

The test system of one data set is Entamoeba histolytica. Description: Antiamoebic activity against trophozoite stage of Entamoeba histolytica HM-1:IMSS measured after 72 hrs by microdilution method. The data set is classed as functional, organism-based. On the technique in general: Dilution methods test growth across graded concentrations, often in twofold steps.
The next data set relates to Vero. Description: Cytotoxicity against African green monkey Vero cells up to 50 uM. The data set is classed as cell-based. The settings on record: chlorocebus sabaeus.

The term IC50 denotes the concentration that gives 50% inhibition. In the data set on Entamoeba histolytica, `O=[N+]([O-])c1cnc(/C=C/c2ccc(F)cc2)n1CCn1cc(CO)nn1` had a half-inhibitory concentration (IC50) of 180 nM. In the data set on Vero, the Activity entry was “Non-Toxic”.
In the data set on Entamoeba histolytica, `O=[N+]([O-])c1cnc(/C=C/c2ccc(Br)cc2)n1CCn1cc(-c2ccccc2)nn1` displayed an IC50 of 1770 nM.
Still for that read-out and setting: for `O=[N+]([O-])c1cnc(/C=C/c2ccc(Br)cc2)n1CCn1cc(CO)nn1` the value was 1650 nM; for `O=[N+]([O-])c1cnc(/C=C/c2ccccc2)n1CCn1cc(-c2ccccn2)nn1`, 5130 nM; for `O=[N+]([O-])c1cnc(/C=C/c2ccc(Br)cc2)n1CCn1cc(COc2ccccc2)nn1`, 1680 nM.
As to `O=[N+]([O-])c1cnc(/C=C/c2ccc(Cl)cc2)n1CCn1cc(COc2ccccc2)nn1`, half-maximal inhibition with Entamoeba histolytica (IC50) required 350 nM. For the same molecule, the Activity entry with Vero is “Non-Toxic”.
As for `Cc1ccc(/C=C/c2ncc([N+](=O)[O-])n2CCn2cc(COc3ccccc3)nn2)cc1`, in the data set on Entamoeba histolytica, 5380 nM corresponded to half-maximal inhibition (IC50).
On the same count and under the same terms, for `CCc1ccc(/C=C/c2ncc([N+](=O)[O-])n2CCn2cc(-c3ccccc3)nn2)cc1` the value was 4680 nM.
For the molecule `O=[N+]([O-])c1cnc(/C=C/c2ccc(Cl)cc2)n1CCn1cc(CO)nn1`, 1110 nM corresponded to half-maximal inhibition in the data set on Entamoeba histolytica (IC50). The Activity result in the data set on Vero is given as “Non-Toxic”.
For `O=[N+]([O-])c1cnc(/C=C/c2ccccc2)n1CCn1cc(CO)nn1`, in the data set on Entamoeba histolytica, half-maximal inhibition (IC50) required 1120 nM. The Activity entry in the data set with Vero was “Non-Toxic”.
Taken in the same sequence, the figures for `O=[N+]([O-])c1cnc(/C=C/c2ccc(F)cc2)n1CCn1cc(-c2ccccn2)nn1` were 130 nM and “Non-Toxic”.
Taken in the same sequence, the figures for `O=[N+]([O-])c1cnc(/C=C/c2ccc(Cl)cc2)n1CCn1cc(-c2ccccn2)nn1` were 290 nM and “Non-Toxic”.
In turn, `CCc1ccc(/C=C/c2ncc([N+](=O)[O-])n2CCn2cc(CO)nn2)cc1` yielded an IC50 in the data set with Entamoeba histolytica of 4180 nM.
Still for that read-out and setting: for `Cc1ccc(/C=C/c2ncc([N+](=O)[O-])n2CCn2cc(-c3ccccn3)nn2)cc1` the value was 6010 nM.
For `O=[N+]([O-])c1cnc(/C=C/c2ccccc2)n1CCn1cc(-c2ccccc2)nn1`, in the data set with Entamoeba histolytica, the IC50 stood at 1350 nM. Further, the Activity entry in the data set with Vero is reported as “Non-Toxic”.
The matching figures for `O=[N+]([O-])c1cnc(/C=C/c2ccc(Br)cc2)n1CCn1cc(-c2ccccn2)nn1`: 1100 nM and “Non-Toxic”.
In the case of `Cc1ccc(/C=C/c2ncc([N+](=O)[O-])n2CCn2cc(CO)nn2)cc1`, the IC50 in the data set on Entamoeba histolytica was 2130 nM.
Still for that read-out and setting: the figure for `O=[N+]([O-])c1cnc(/C=C/c2ccccc2)n1CCn1cc(COc2ccccc2)nn1` is 3560 nM.
The same measure, in the same setting: the figure for `Cc1ccc(/C=C/c2ncc([N+](=O)[O-])n2CCn2cc(-c3ccccc3)nn2)cc1` is 2510 nM.
Turning to `O=[N+]([O-])c1cnc(/C=C/c2ccc(Cl)cc2)n1CCn1cc(-c2ccccc2)nn1`, the half-maximal inhibitory concentration (IC50) in the data set on Entamoeba histolytica came to 1220 nM. Also, the Activity entry in the data set on Vero is “Non-Toxic”.
The matching figures for `O=[N+]([O-])c1cnc(/C=C/c2ccc(F)cc2)n1CCn1cc(-c2ccccc2)nn1`: 120 nM and “Non-Toxic”.
The matching figures for `O=[N+]([O-])c1cnc(/C=C/c2ccc(F)cc2)n1CCn1cc(COc2ccccc2)nn1`: 280 nM and “Non-Toxic”.
